Assay results from PubChem BioAssay (NCI).
Values joined by “and” are separate entries in the source; they are usually repeats but may differ in a detail not shown here. Equal entries are not always repeated.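 1) Cells in 96-well plates. 2) Compound, 48 h, 5 concentrations. 3) Linear interpolation between surrounding doses. 4) Unreached endpoint = highest concentration. Abbreviation: GI50, concentration required for 50% inhibition of growth. The concentration for full growth arrest is given as TGI.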

Legend:
Assay in all cases: growth of human tumour cells (NCI), 48 h
[1] = tested on: MCF7 breast
[2] = tested on: HOP-92 NSCLC
[3] = tested on: SNB-19 CNS
[4] = tested on: TK-10 renal
[5] = tested on: 786-0 renal
[6] = tested on: U251 CNS
[7] = tested on: KM12 colon
[8] = tested on: HS 578T breast
[9] = tested on: SF-539 CNS
[10] = tested on: A498 renal

Row | Compound | TGI [1] [µM] | TGI [2] | TGI [3] [µM] | TGI [4] [µM] | TGI [5] [µM] | TGI [6] | TGI [7] [µM] | TGI [8] [µM] | TGI [9] | GI50 [1] [µM] | GI50 [3] [µM] | GI50 [5] | GI50 [6] [µM] | GI50 [7] [µM] | GI50 [8] [µM] | GI50 [9] [µM] | GI50 [10] [µM] | TGI [10] [µM] | GI50 [2] [µM] | GI50 [4] [µM]
1 | Cn1nnnc1N/N=C/c1ccccc1 | > 10 | > 10 µM | > 10 | > 10 | > 10 | > 10 µM | > 10 | > 10 | > 10 µM | – | – | – | – | – | – | – | – | – | – | –
2 | C=CC[P+](c1ccccc1)(c1ccccc1)c1ccccc1 | > 100 | – | > 100 | – | > 100 | > 100 µM | > 100 | > 100 | > 100 µM | 2.84 | 4.1 | 27.6 µM | 3.44 | 1.46 | 10.1 | 8.42 | 7.09 | 63 | – | –
3 | CC(=O)c1c(C)n(C)c2c1nnc1ccccc12 | 86.3 | > 100 µM | > 100 | > 100 | > 100 | > 100 µM | > 100 | > 100 | > 100 µM | – | – | – | – | – | – | – | – | > 100 | – | –
4 | O=C(Nc1ccc(Cl)cc1F)c1cc(I)ccc1O | 18.5 | 0.679 µM | 92 | 16.1 | 9.24 | 21.2 µM | 4.98 | 7.29 | 5.78 µM | 2.38 | 0.714 | 2.98 µM | 1.64 | 2.15 | 1.14 | 1.1 | 0.269 | 0.846 | 0.171 | 4.21
5 | C=C(C)C1CC2(C)C(C)CC(OC(=O)/C(C)=C\C)CC2C(OC(=O)/C(C)=C\C)C1O (centres undefined) | > 100 | > 100 µM | > 100 | > 100 | > 100 | > 100 µM | > 100 | > 100 | > 100 µM | – | – | – | – | – | – | – | – | > 100 | – | –
6 | COc1cnc2c(c1)C(=O)c1c-2n(CCCN2CCC(O)CC2)c(=O)c2cc(F)ccc12 | 1.17 | 3.22 µM | 1.32 | 1.59 | 0.925 | 0.453 µM | – | 52.4 | 1.14 µM | 0.0312 | 0.175 | 0.211 µM | 0.0814 | – | 1.67 | 0.295 | 0.198 | 1.23 | 0.31 | 0.323
7 | O=C(Nc1cccc(Oc2nnc(Cl)c3ccccc23)c1)Nc1ccc(Cl)c(C(F)(F)F)c1 | 3.03 | 1.96 µM | 4.9 | 6.55 | 3.01 | 3.93 µM | 2.97 | 8.18 | 4.01 µM | 0.571 | 1.26 | 0.767 µM | 1.31 | 0.701 | 1.72 | 1.38 | 0.275 | 1.7 | 0.352 | 2.32
8 | COC1CCC(O)C(/C=C/[N+](=O)[O-])C1 (centres undefined) | 12.9 | 26.6 µM | 23.6 | 16.1 | 3.67 | 8.04 µM | 16.9 | 17.2 | 16.6 µM | – | – | – | – | – | – | – | – | 14.2 | – | –
9 | O=C(CSC(c1ccccc1)c1ccccc1)N/N=C/c1cccc(Cl)c1 | 38.4 | 37.2 µM | – | 34.9 | 32.7 | 31.5 µM | 33.2 | 38.2 | 33.3 µM | 19.1 | – | 17.3 µM | 17.7 | 17.3 | 15.7 | 18.8 | 14.9 | 29 | 21.2 | 19.2
10 | Oc1c(CN2CCCC2)cc(COCc2ccc(Br)cc2)c2cccnc12 | 1.37 | 7.56 µM | 15.4 | 10.3 | 2.59 | 2.78 µM | 11.3 | 17.1 | 2.85 µM | 0.316 | 1.02 | 0.484 µM | 0.525 | 0.621 | 2.82 | 1.11 | 1.62 | 5.27 | 1.93 | 0.474
11 | O=[N+]([O-])c1ccc2c(N3CCC(CCCC4CCN(c5ncnc6cc([N+](=O)[O-])ccc56)CC4)CC3)ncnc2c1 | > 59.3 | > 76 µM | > 100 | > 100 | > 86.2 | > 100 µM | > 100 | > 100 | > 100 µM | 0.619 | > 42.3 | > 46 µM | > 42.2 | > 56.7 | > 46.3 | > 47.9 | 1.44 | > 100 | 4.89 | > 58.7
12 | C=CC(C=O)C1(O)CCOC(=O)/C1=C\N (centres undefined) | > 100 | – | > 100 | > 100 | > 100 | > 100 µM | > 100 | > 100 | – | > 100 | > 100 | > 100 µM | > 100 | > 100 | 7.57 | – | – | – | – | > 100
13 | O=S(=O)(O)c1ccc(-c2nnc(-c3ccccn3)nc2-c2ccc(S(=O)(=O)O)o2)o1 | > 100 | > 100 µM | > 100 | – | > 100 | > 100 µM | > 100 | > 100 | > 100 µM | – | – | – | – | – | – | – | – | > 100 | – | –
14 | CNC(=O)c1ccc2cc(C3(O)CCn4cncc43)ccc2c1 (centres undefined) | > 100 | > 100 µM | > 100 | > 100 | > 100 | > 100 µM | > 100 | > 100 | > 100 µM | > 100 | > 100 | > 100 µM | > 100 | > 100 | > 100 | > 100 | > 100 | > 100 | > 100 | > 100
15 | Cc1ccc(C)c(NC(=O)NCc2ccc(Cl)cc2)c1 | > 100 | 63.5 µM | > 58.5 | 69.8 | > 90.3 | > 100 µM | > 100 | > 100 | > 100 µM | – | – | – | – | – | – | – | – | 88.4 | – | –
16 | COc1ccc(-c2nn(-c3cccc(NC(=O)c4ccc5c(c4)OCCO5)c3)cc2-c2ccncc2)cc1Cl | 10.9 | 4.99 µM | 98.1 | 29.3 | 5.91 | 12.7 µM | 6.76 | 8.13 | 3.48 µM | 1.99 | 4.63 | 1.78 µM | 1.18 | 1.39 | 1.61 | 1.41 | 0.422 | 3.45 | 0.335 | 5.25
17 | CCN1C(=O)NC(=O)C(C)(N2C(=O)c3c(F)c(F)c(F)c(F)c3C2=O)C1=O (centres undefined) | 13.5 | 4.12 µM | 24.9 | 18.6 | 17.7 | 4.04 µM | 4.56 | 25.1 | 8.02 µM | 2.77 | 9.49 | 4.49 µM | 1.93 | 2.11 | 3.95 | 2.89 | 17.7 | 32.9 | 1.86 | 3.72
18 | Cc1cnc(/C=N\NC(N)=S)c2cccc(N)c12 | > 100 | > 100 µM | > 100 | > 100 | – | > 100 µM | > 100 | > 100 | 3.7 µM and > 27.7 µM | 1.5 | 3.42 | 0.867 µM and 0.501 µM | 2 | 4.82 | > 58 | 0.596 | 2.04 | > 100 | 2.07 | 6.89
19 | CN(N=O)C(=O)N[C@@H](C=O)[C@@H](O)[C@H](O)[C@H](O)CO | > 633 | 621 µM and > 750 µM | > 750 | > 750 | > 750 | 626 µM and > 750 µM | > 750 | > 750 | > 750 µM | – | > 750 | > 750 µM | > 750 | > 750 | – | > 750 | – | > 628 | > 750 | –
20 | CN(C)CCNC(=O)Cn1cc([N+](=O)[O-])c(=O)c2ccccc21 | > 100 | – | > 100 | > 100 | > 100 | > 100 µM | > 100 | > 100 | > 100 µM | – | – | – | – | – | – | – | – | > 100 | – | –
21 | CC(=O)O[C@H](C[C@H](C(C)C)N(C)C(=O)[C@@H](NC(=O)[C@H]1CCCCN1C)C(C)C)c1nc(C(=O)N[C@@H](Cc2ccccc2)C[C@H](C)C(=O)O)c(C(C)C)s1 | > 33.3 | > 15.5 µM | > 33.3 | > 33.3 | 9.51 | > 33.3 µM | – | 3.08 | 0.00391 µM | < 0.00333 | < 0.00333 | < 0.00333 µM | < 0.00333 | < 0.00333 | < 0.00333 | < 0.00333 | < 0.00333 | < 0.00333 | 0.00521 | 0.475
22 | C/C(=N\N=C(\[Se])N1CCN(c2ccccn2)CC1)c1ccccn1 | 14.3 | 13.2 µM | 18.6 | 20.6 | 19.8 | 16.7 µM | 18.5 | 68.2 | 12.2 µM | 0.00278 | 0.13 | 0.198 µM | – | 0.239 | – | 0.407 | – | 18.1 | 0.0044 | –
23 | Cc1cccc(C(=O)/C=C/SC(=NC#N)SCc2ccccc2)c1 | > 100 | 47.9 µM | > 100 | 32 | 40.5 | 99.4 µM | > 100 | 94.8 | 31.7 µM | 34.3 | 36.1 | 19.1 µM | 22.5 | 31.6 | 27.9 | 6.67 | – | – | 12.3 | 13.1
24 | C[C@@H]1CC[C@@H]2[C@@H]1[C@H](OC(=O)/C=C/c1ccccc1)[C@]1(C3CCCCC3)C[C@@H](NC(=O)CO)[C@@]2(C)O1 | 32.7 | – | 32.3 | 35.3 | 29.3 | 34 µM | 32 | 9.21 | 31.4 µM | 14.4 | 17.6 | 14.9 µM | 18.6 | 16.3 | 2.79 | 16.7 | 2.19 | 6.61 | – | 18.4
25 | COC(=O)c1ccc(NC(=O)Nc2ccc3oc(=O)c4ccccc4c3c2)cc1 | > 100 | 80.9 µM | 89.8 | > 100 | 41.9 | > 100 µM | > 100 | 29.7 | > 100 µM | 35.2 | 33 | 18 µM | 30.9 | > 100 | – | 62.5 | – | – | 28.5 | > 100
26 | Cc1cc(=O)[nH]o1 | > 100 | > 100 µM | > 100 | > 100 | > 100 | > 100 µM | – | > 100 | > 100 µM | – | – | – | – | – | – | – | – | – | – | –
27 | OCC1OC(OCC(O)C(O)C(O)C(/C=N/Nc2ccccc2)=N/Nc2ccccc2)C(O)C(O)C1O (centres undefined) | > 100 | > 100 µM | > 100 | > 100 | > 100 | > 100 µM | > 100 | > 100 | > 100 µM | – | – | – | – | – | – | – | – | – | – | –
28 | CCCC[N+](CCCC)=c1ccc2nc3c(C)cc(N(CC)CC)cc3sc-2c1 | – | – | – | 1.58 | 1.44 | – | 1.34 | 2.29 | 1.14 µM | – | – | 0.302 µM | – | 0.113 | 0.341 | 0.192 | 0.236 | 4.43 | – | 0.102
29 | Cn1cc(C2=C(c3cccnc3)C(=O)NC2=O)c2ccccc21 | > 25 | – | > 25 | > 25 | > 25 | > 25 µM | > 25 | > 25 | > 25 µM | 8.45 | > 25 | > 25 µM | 18.8 | > 20.6 | 8.14 | 11.4 | 9.03 | > 22.9 | – | > 25
30 | Oc1ccc(O)c(-c2cc(-c3ccccc3)nn2-c2ccccc2)c1 | > 100 | > 100 µM | > 100 | 71 | 25.2 | 19.9 µM | > 100 | 68 | – | 6.55 | 23.9 | 12.2 µM | 5.7 | 19.6 | 19.6 | – | – | – | 88.9 | 14
